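Cells were grown in 96-well plates and exposed to each compound for 48 hours at five concentrations; endpoints were interpolated linearly between bracketing concentrations, or set to the highest concentration if not reached. GI50 marks 50% less growth.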 The source made the active and inactive calls. Cut-off read from the data, not from the text of the source: active = GI50 up to about 1.1 µM and inactive = higher.
Experiments:
Experiment in all cases: DTP human tumour cell line panel, 48 h
OVCAR-4 = tested on: OVCAR-4
U-251 = tested on: U-251
K562 = tested on: K562
SW-620 = tested on: SW-620
LOX IMVI = tested on: LOX IMVI
SF-268 = tested on: SF-268
OVCAR-5 = tested on: OVCAR-5
A549 = tested on: A549
NCI-H226 = tested on: NCI-H226
SN12C = tested on: SN12C
SK-MEL-2 = tested on: SK-MEL-2
SF-295 = tested on: SF-295
OVCAR-8 = tested on: OVCAR-8
CCRF-CEM = tested on: CCRF-CEM
OVCAR-3 = tested on: OVCAR-3
HOP-92 = tested on: HOP-92
HT-29 = tested on: HT-29
RXF 393 = tested on: RXF 393
SK-MEL-28 = tested on: SK-MEL-28
HCC 2998 = tested on: HCC 2998

Row | Compound | GI50 (OVCAR-4) | GI50 (U-251) | GI50 (K562) | GI50 (SW-620) | GI50 (LOX IMVI) | GI50 (SF-268) | GI50 (OVCAR-5) | GI50 (A549) | GI50 (NCI-H226) | GI50 (SN12C) | GI50 (SK-MEL-2) | GI50 (SF-295) | GI50 (OVCAR-8) | GI50 (CCRF-CEM) | GI50 (OVCAR-3) | GI50 (HOP-92) | GI50 (HT-29) | GI50 (RXF 393) | GI50 (SK-MEL-28) | GI50 (HCC 2998)
1 | CCOC(=O)NC(=O)c1cn(CCNCCO)c(=O)[nH]c1=O | > 100 µM (inactive) | > 100 µM (inactive) | > 100 µM (inactive) | > 100 µM (inactive) | > 100 µM (inactive) | > 100 µM (inactive) | > 100 µM (inactive) | > 100 µM (inactive) | > 100 µM (inactive) | > 100 µM (inactive) | > 100 µM (inactive) | > 100 µM (inactive) | > 100 µM (inactive) | > 100 µM (inactive) | > 100 µM (inactive) | > 100 µM (inactive) | > 100 µM (inactive) |  |  | 
2 | c1nc2nc[nH]c(SSc3[nH]cnc4ncnc3-4)c-2n1 |  | 5.68 µM (inactive) | < 0.0472 µM (active) | 0.824 µM (active) | < 0.0441 µM (active) | 0.897 µM (active) | 4.4 µM (inactive) | 13.9 µM (inactive) | 0.476 µM (active) | 12.8 µM (inactive) | 8.22 µM (inactive) | 0.127 µM (active) | 0.455 µM (active) | 0.202 µM (active) | < 0.0442 µM (active) | < 0.01 µM (active) | 1.19 µM (inactive) | > 100 µM (inactive) | 61.8 µM (inactive) | 
3 | Cc1ccc(C(=O)C2CC3(CCC2(O)c2ccc(C)cc2)CC(=O)Nc2ccccc2C3=O)cc1 (stereo not given) |  | 8.39 µM (inactive) |  | > 100 µM (inactive) | > 100 µM (inactive) | > 100 µM (inactive) | > 100 µM (inactive) | > 100 µM (inactive) | > 100 µM (inactive) | > 100 µM (inactive) | > 100 µM (inactive) | 28.4 µM (inactive) | > 100 µM (inactive) | 5.66 µM (inactive) | > 100 µM (inactive) | 19.4 µM (inactive) | > 100 µM (inactive) | 16.1 µM (inactive) | > 100 µM (inactive) | > 100 µM (inactive)
4 | CC(=O)Nc1ccc(C(=O)NN2C(=O)C(Cl)C2/C=C/c2ccccc2)cc1 (stereo not given) |  | > 100 µM (inactive) | > 100 µM (inactive) | > 100 µM (inactive) |  | > 100 µM (inactive) | > 100 µM (inactive) | > 100 µM (inactive) | > 100 µM (inactive) |  | > 100 µM (inactive) | > 100 µM (inactive) | > 100 µM (inactive) | > 100 µM (inactive) | > 100 µM (inactive) | > 100 µM (inactive) | > 100 µM (inactive) |  | > 100 µM (inactive) | > 100 µM (inactive)
5 | Nc1nc(=O)n(CC(O)CO)s1 (stereo not given) | > 100 µM (inactive) | > 100 µM (inactive) | > 100 µM (inactive) | > 100 µM (inactive) | > 100 µM (inactive) | > 100 µM (inactive) | > 100 µM (inactive) | > 100 µM (inactive) | > 100 µM (inactive) | > 100 µM (inactive) | > 100 µM (inactive) | > 100 µM (inactive) | > 100 µM (inactive) | > 100 µM (inactive) | > 100 µM (inactive) |  | > 100 µM (inactive) | > 100 µM (inactive) | < 0.01 µM (active) | > 100 µM (inactive)
6 | CC(C)(C)[Si](C)(C)OCCOCn1cc(F)c(=O)[nH]c1=O | > 100 µM (inactive) | > 100 µM (inactive) | > 100 µM (inactive) | > 100 µM (inactive) | > 100 µM (inactive) | > 100 µM (inactive) | > 100 µM (inactive) | > 100 µM (inactive) | > 100 µM (inactive) | > 100 µM (inactive) | > 100 µM (inactive) | > 100 µM (inactive) | > 100 µM (inactive) | > 100 µM (inactive) | > 100 µM (inactive) |  | > 100 µM (inactive) | > 100 µM (inactive) |  | 
7 | COc1ccc(-c2cc(-c3ccccc3)c(C#N)c(=O)n2C2OC(CO)C(O)C(O)C2O)cc1 (stereo not given) | > 100 µM (inactive) | > 100 µM (inactive) | > 100 µM (inactive) | > 100 µM (inactive) | > 100 µM (inactive) | > 100 µM (inactive) | > 100 µM (inactive) | > 100 µM (inactive) | > 100 µM (inactive) | > 100 µM (inactive) |  | > 100 µM (inactive) | > 100 µM (inactive) | > 100 µM (inactive) | > 100 µM (inactive) |  | > 100 µM (inactive) | > 100 µM (inactive) | > 100 µM (inactive) | > 100 µM (inactive)
8 | COc1ccc(N2C(=O)CSC2c2c[nH]c3ccccc23)cc1 (stereo not given) | > 100 µM (inactive) | 88.7 µM (inactive) | 26.2 µM (inactive) | > 100 µM (inactive) | 78.9 µM (inactive) | > 100 µM (inactive) | > 100 µM (inactive) |  |  | > 100 µM (inactive) |  | 44.9 µM (inactive) | 60 µM (inactive) | 39.5 µM (inactive) | > 100 µM (inactive) | 52.7 µM (inactive) | 51.1 µM (inactive) | > 100 µM (inactive) | > 100 µM (inactive) | > 100 µM (inactive)

Source: ChEMBL document CHEMBL1201862, “PubChem BioAssay data set” (2004)
